Data published in PubChem BioAssay AID248 (DTP/NCI, 2004).
Where “and” joins values, the source holds several entries; their conditions need not be identical. Equal entries are not always repeated. Inconclusive results and toxic doses are left out. Rule as the data show it: active = T/C of 150% or more; inactive = T/C below 125%.

Tested on: L1210 leukemia ip in BDF1 mice, survival T/C
Experiment: NCI In Vivo Anticancer Drug Screen. Data for tumor model L1210 Leukemia (intraperitoneal) in B6D2F1 (BDF1) mice
Conditions: endpoint: mean survival time, higher = longer survival
Method in brief: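 Transplantable tumor model; survival measured in treated vs vehicle control mice. Value = treated/control.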

[1] = dose: 3.12 mg/kg/injection, schedule: Q01DX009 (ip), vehicle: saline
[2] = dose: 6.25 mg/kg/injection, schedule: Q01DX009 (ip), vehicle: saline
[3] = dose: 75.0 mg/kg/injection, schedule: Q01DX001 (ip), vehicle: saline
[4] = dose: 100.0 mg/kg/injection, schedule: Q04DX003 (ip), vehicle: Klucel (hydroxypropylcellulose) (HPC)
[5] = dose: 200.0 mg/kg/injection, schedule: Q01DX009 (ip), vehicle: Klucel (hydroxypropylcellulose) (HPC)
[6] = dose: 200.0 mg/kg/injection, schedule: Q04DX003 (ip), vehicle: Klucel (hydroxypropylcellulose) (HPC)
[7] = dose: 100.0 mg/kg/injection, schedule: Q01DX001 (ip), vehicle: saline
[8] = dose: 200.0 mg/kg/injection, schedule: Q01DX001 (ip), vehicle: saline
[9] = dose: 400.0 mg/kg/injection, schedule: Q01DX001 (ip), vehicle: saline
[10] = dose: 20.0 mg/kg/injection, schedule: Q01DX009 (ip), vehicle: saline
[11] = dose: 40.0 mg/kg/injection, schedule: Q01DX009 (ip), vehicle: saline
[12] = dose: 100.0 mg/kg/injection, schedule: Q04DX002 (ip), vehicle: Klucel (hydroxypropylcellulose) (HPC)
[13] = dose: 200.0 mg/kg/injection, schedule: Q04DX002 (ip), vehicle: Klucel (hydroxypropylcellulose) (HPC)
[14] = dose: 400.0 mg/kg/injection, schedule: Q04DX002 (ip), vehicle: Klucel (hydroxypropylcellulose) (HPC)
[15] = dose: 100.0 mg/kg/injection, schedule: Q04DX002 (ip), vehicle: saline with Tween-80
[16] = dose: 200.0 mg/kg/injection, schedule: Q04DX002 (ip), vehicle: saline with Tween-80
[17] = dose: 100.0 mg/kg/injection, schedule: Q01DX009 (ip), vehicle: Klucel (hydroxypropylcellulose) (HPC)
[18] = dose: 400.0 mg/kg/injection, schedule: Q01DX009 (ip), vehicle: Klucel (hydroxypropylcellulose) (HPC)
[19] = dose: 400.0 mg/kg/injection, schedule: Q04DX003 (ip), vehicle: Klucel (hydroxypropylcellulose) (HPC)

Measured: T/C

OCCN1CCN(CC/C=C2\c3ccccc3Sc3ccc(Cl)cc32)CC1
inactive: dose: 0.39 mg/kg/injection, schedule: Q03HX024 (ip), vehicle: saline 100 % of control | dose: 0.78 mg/kg/injection, schedule: Q03HX024 (ip), vehicle: saline 94 % of control | dose: 1.0 mg/kg/injection, schedule: Q01DX009 (ip), vehicle: saline 101 % of control and 87 % of control | dose: 1.56 mg/kg/injection, schedule: Q03HX024 (ip), vehicle: saline 107 % of control | dose: 2.0 mg/kg/injection, schedule: Q01DX009 (ip), vehicle: saline 95 % of control and 103 % of control | [1] 104 % of control | dose: 3.12 mg/kg/injection, schedule: Q03HX024 (ip), vehicle: saline 111 % of control | dose: 3.12 mg/kg/injection, schedule: Q04DX003 (ip), vehicle: saline 106 % of control | dose: 4.0 mg/kg/injection, schedule: Q01DX009 (ip), vehicle: saline 100 % of control and 106 % of control | [2] 120 % of control | dose: 6.25 mg/kg/injection, schedule: Q04DX003 (ip), vehicle: saline 100 % of control and 105 % of control | dose: 8.0 mg/kg/injection, schedule: Q01DX009 (ip), vehicle: saline 106 % of control and 115 % of control | dose: 9.37 mg/kg/injection, schedule: Q01DX001 (ip), vehicle: saline 106 % of control | dose: 12.5 mg/kg/injection, schedule: Q01DX009 (ip), vehicle: saline 120 % of control and 86 % of control | dose: 12.5 mg/kg/injection, schedule: Q04DX003 (ip), vehicle: saline 108 % of control and 116 % of control | dose: 16.0 mg/kg/injection, schedule: Q01DX009 (ip), vehicle: saline 115 % of control and 89 % of control | dose: 18.75 mg/kg/injection, schedule: Q01DX001 (ip), vehicle: saline 100 % of control | dose: 20.0 mg/kg/injection, schedule: Q04DX003 (ip), vehicle: saline 115 % of control | dose: 25.0 mg/kg/injection, schedule: Q01DX009 (ip), vehicle: saline 124 % of control | dose: 25.0 mg/kg/injection, schedule: Q04DX003 (ip), vehicle: saline 119 % of control | dose: 37.5 mg/kg/injection, schedule: Q01DX001 (ip), vehicle: saline 105 % of control | dose: 40.0 mg/kg/injection, schedule: Q04DX003 (ip), vehicle: saline 105 % of control | [3] 105 % of control

Cn1ncc2c1C1(C)CCC2C1(C)C (centres undefined)
inactive: dose: 50.0 mg/kg/injection, schedule: Q01DX009 (ip), vehicle: Klucel (hydroxypropylcellulose) (HPC) 89 % of control | [4] 102 % of control | [5] 92 % of control | [6] 107 % of control

CCOC1C=CC(O)C(CO)O1 (centres undefined)
inactive: [7] 101 % of control | [8] 98 % of control | [9] 95 % of control

CNNC(=O)CCc1ccccc1
inactive: dose: 10.0 mg/kg/injection, schedule: Q01DX009 (ip), vehicle: saline 103 % of control | [10] 93 % of control | [11] 90 % of control

Cc1cccc([N+](=O)[O-])c1O
inactive: [12] 99 % of control | [13] 95 % of control | [14] 87 % of control

CC1CC(NC(=S)NC(=O)c2ccccc2Cl)CC(C)(C)C1 (centres undefined)
inactive: [15] 98 % of control | [16] 113 % of control | dose: 400.0 mg/kg/injection, schedule: Q04DX002 (ip), vehicle: saline with Tween-80 102 % of control

CC(C)=CCN(CC=C(C)C)CCC(C(N)=O)c1cccc2ccccc12 (centres undefined)
inactive: dose: 6.25 mg/kg/injection, schedule: Q04DX003 (ip), vehicle: Klucel (hydroxypropylcellulose) (HPC) 93 % of control | dose: 12.5 mg/kg/injection, schedule: Q04DX003 (ip), vehicle: Klucel (hydroxypropylcellulose) (HPC) 93 % of control | dose: 25.0 mg/kg/injection, schedule: Q04DX003 (ip), vehicle: Klucel (hydroxypropylcellulose) (HPC) 98 % of control

O=C(/C=C/C(=O)NCc1ccccc1)NCc1ccccc1
inactive: dose: 100.0 mg/kg/injection, schedule: Q04DX003 (ip), vehicle: saline 100 % of control | dose: 200.0 mg/kg/injection, schedule: Q04DX003 (ip), vehicle: saline 103 % of control | dose: 400.0 mg/kg/injection, schedule: Q04DX003 (ip), vehicle: saline 100 % of control

O=C(Nc1ccc(NC(=O)c2ccccc2)c2c1C(=O)c1ccccc1C2=O)c1ccccc1
inactive: [17] 96 % of control | [12] 100 % of control | [5] 96 % of control | [13] 93 % of control | [18] 107 % of control | [14] 103 % of control

COc1cc(/C=N/O)cc(I)c1O
inactive: [17] 104 % of control | [5] 101 % of control | [18] 101 % of control

CCOP(=O)(OCC)N(C(=O)O)C1CCCCC1
inactive: dose: 50.0 mg/kg/injection, schedule: Q01DX009 (ip), vehicle: saline 96 % of control | dose: 100.0 mg/kg/injection, schedule: Q01DX009 (ip), vehicle: saline 109 % of control | dose: 200.0 mg/kg/injection, schedule: Q01DX009 (ip), vehicle: saline 108 % of control | dose: 400.0 mg/kg/injection, schedule: Q01DX009 (ip), vehicle: saline 105 % of control

COc1ccccc1C(=O)CC(O)(C(F)(F)F)C(F)(F)F
inactive: dose: 100.0 mg/kg/injection, schedule: Q01DX009 (ip), vehicle: saline with Tween-80 105 % of control | dose: 200.0 mg/kg/injection, schedule: Q01DX009 (ip), vehicle: saline with Tween-80 103 % of control | dose: 400.0 mg/kg/injection, schedule: Q01DX009 (ip), vehicle: saline with Tween-80 103 % of control

CC1(C)OC2C3CC(C2O1)n1cnc2c(N)nc[n+](c21)C3 (centres undefined)
inactive: [3] 120 % of control | dose: 150.0 mg/kg/injection, schedule: Q01DX001 (ip), vehicle: saline 101 % of control | dose: 300.0 mg/kg/injection, schedule: Q01DX001 (ip), vehicle: saline 106 % of control

CCCCCCCCC(=O)NCc1ccc(O)c(OC)c1
inactive: dose: 1.56 mg/kg/injection, schedule: Q01DX009 (ip), vehicle: saline 93 % of control | [1] 101 % of control | [2] 90 % of control

CC/C(=N\N=C(N)N)c1ccc(NC(=S)Nc2ccccc2)cc1
inactive: [10] 101 % of control | [11] 101 % of control | dose: 80.0 mg/kg/injection, schedule: Q01DX009 (ip), vehicle: saline 107 % of control

O=C(O)c1c(Cl)[nH]c2ccccc12
inactive: dose: 50.0 mg/kg/injection, schedule: Q04DX002 (ip), vehicle: saline with Tween-80 101 % of control | [15] 97 % of control | [16] 89 % of control

Nc1ccc(CC(=O)NC(CCC(=O)O)C(=O)O)cc1 (centres undefined)
inactive: dose: 100.0 mg/kg/injection, schedule: Q04DX002 (ip), vehicle: saline 103 % of control | dose: 200.0 mg/kg/injection, schedule: Q04DX002 (ip), vehicle: saline 91 % of control | dose: 400.0 mg/kg/injection, schedule: Q04DX002 (ip), vehicle: saline 100 % of control

COc1nc(NNC(N)=S)ccc1[N+](=O)[O-]
inactive: [4] 91 % of control | [6] 93 % of control | [19] 93 % of control

O=CNC(NC=O)c1ccccc1[N+](=O)[O-]
inactive: [17] 101 % of control | [4] 104 % of control | [5] 98 % of control | [6] 98 % of control | [18] 97 % of control | [19] 100 % of control

CC(C)/C(=C\c1ccccc1)C(=O)c1ccccc1
inactive: dose: 100.0 mg/kg/injection, schedule: Q04DX003 (ip), vehicle: saline with Tween-80 104 % of control | dose: 200.0 mg/kg/injection, schedule: Q04DX003 (ip), vehicle: saline with Tween-80 110 % of control

NC1CCC(O)CC1 (centres undefined)
inactive: [7] 110 % of control | [8] 97 % of control | [9] 97 % of control

CN(C)c1ccc(/C=C/c2ccc3ccccc3n2)c(F)c1
inactive: [4] 100 % of control | [6] 98 % of control | [19] 93 % of control

Cc1cc(=O)[nH]c(O)c1C(=O)CC(=O)c1ccccc1
inactive: [7] 97 % of control | [8] 100 % of control

COc1c(NC(=O)CC(C)=O)cccc1NC(=O)CC(C)=O
inactive: [17] 108 % of control | [4] 100 % of control | [5] 111 % of control | [6] 103 % of control | [18] 97 % of control | [19] 94 % of control

O=S(=O)(c1ccccc1)N1CN2CN(C1)CN(S(=O)(=O)c1ccccc1)C2
inactive: [12] 103 % of control | [13] 106 % of control | [14] 89 % of control
